Tests used:
Type in all cases: cell-based, human
[1] = tested on: Cama-1, SW527, BT483 and MCF-7; experiment: Cell recovery by crystal violet staining, four breast tumor cell lines together; conditions: 72 h; 5 μg/ml PGN, 50 μg/ml Poly IC or 10 μg/ml LPS; average of the four cell lines
Protocol: (§1) Cell recovery after treatment with TLR ligands was measured by crystal violet staining (Sigma-Aldrich). Cells were plated at 10^4 cells/well in 96 well plates. After 72 hours of culture either with or without TLR ligand, the cells were washed with PBS, fixed in 6% formaldehyde (Sigma-Aldrich) for 20 minutes, washed twice, and then stained with 0.1% crystal violet for 10 minutes. After washes and incubation in 1% SDS for 1 hour, the absorbance was read at 605 nm on a Vmax plate reader (Molecular Devices, Sunnyvale, Calif.). Annexin V staining was performed with an annexin-FITC apoptosis detection kit (BD Pharmingen, San Diego, Calif.) according to the manufacturer's instructions. Sub-diploid cells were detected by staining with 3 μg/mL propidium iodide (PI) (Molecular probes, Eugene, Oreg.), after overnight permeabilization in 70% ethanol. Fluorescence was analyzed by flow cytometry on a FACScalibur (Becton Dickinson, Mountain View, Calif.) equipped with a doublet-discrimination module and using Celiquest Pro software (Becton Dickinson).
Four human breast tumor cell lines, Cama-1, SW527, BT483 and MCF-7, were analyzed for cell death in response to Poly IC. Cells were cultured for 72 hours with 5 μg/ml PGN, 50 μg/ml Poly IC or 10 μg/ml LPS. Control cells were cultured with PBS. Cytotoxicity was assessed by crystal violet staining and expressed as a percent of control.
Furthermore, additional TLR ligands were tested to determine any possible effects on cellular toxicity. The ligands tested were PGN, LPS, Flagellin, R848 and CpG. Cells were cultured for 72 hours with 5 μg/ml PGN, 10 μg/ml LPS, 50 ng/ml flagellin, 6 μg/ml R848, 10 μg/ml CpG ODNs, or with PBS as control. Cell recovery was assessed by crystal violet staining and expressed as a percent of control.

Cama-1 cells = experiment: Apoptosis by annexin V staining and flow cytometry
Protocol: as §1
Cama-1 cells were plated in 6 well plates at 3×10^5 cells per well. After overnight adherence, siRNA transfections were performed for 5 hours in OptiMEM medium (Life technologies) containing 3 μg/mL lipofectamine 2000 (Invivogen) and 100 nM siRNA. Cells were then washed and cultured for 72 hours in complete medium before treatment with Poly IC and apoptosis analysis. siRNA duplexes specific for TLR3, PKR, IRAK-4, TRAF6 and p65 were purchased from Dharmacon (Lafayette, Colo.) as SMART-Pools. TRIF siRNA was purchased from the same supplier as single oligoduplexes (5′-GCUCUUGUAUCUGMGCAC-3′) (SEQ ID NO: 23). TLR3 and TRIF expression was assessed by PCR (35 cycles: 1 min 94° C., 1 min 55° C., 2 min 72° C.) with Taq PCR ReadyMix (Sigma-Aldrich) using following primers: […]
To further investigate the effect of Poly IC treatment on breast tumor cell lines, cell death was analyzed in Cama-1 cells by annexin V staining. Cells were cultured for 24 hours either with or without 5 μg/ml of Poly IC. Apoptosis was measured by annexin V staining and flow cytometry.
We also tried to determine the kinetics of Poly IC induced apoptosis. Cama-1 cells were cultured either with or without 5 μg/ml or 50 ng/ml of Poly IC. The percentage of apoptotic (annexin positive) cells in the culture were measured during the following 30 hours. […] Specifically, Poly IC triggered apoptosis in Cama-1 cells beginning 9 hours after Poly IC addition and reaching up to 80% apoptotic cells after 30 hours of treatment.
Poly AU was analyzed for its effects on apoptosis. Cama-1 cells were cultured for 48 hours either with PBS or with increasing concentrations of Poly AU ranging from 5 ng/ml to 50 μg/ml. Apoptosis was analyzed by measuring the percentage of annexin V positive cells.
In order to determine the pathway of Poly IC induced Cama-1 cell toxicity, RNA interference was used to efficiently downregulate expression of TRIF and PKR. Cama-1 cells were plated in 6 well plates at 3×10^5 cells per well. After overnight adherence, siRNA transfections were performed for 5 hours in OptiMEM medium (Life technologies) containing 3 μg/mL lipofectamine 2000 (Invivogen) and 100 nM siRNA. Cells were transfected with either MOCK (water), control scrambled duplex (scr) siRNA, TRIF siRNA or PKR siRNA.
72 hours after siRNA transfection, Cama-1 cells were cultured for another 24 hours either with or without 5 μg/ml Poly IC. Apoptosis was measured by annexin V staining and expressed as a percentage of apoptotic cells in culture. On average, 10% of control cells (MOCK and scr) that were untreated underwent apoptosis. In contrast, about 75% of control cells (MOCK and scr) that were treated with Poly IC underwent apoptosis.
To further investigate TLR3 mediated cytotoxicity, the involvement of the signaling molecules IRAK4 and TRAF6, both downstream mediators of TLR signaling, were assessed. Cama-1 cells were plated in 6 well plates at 3×10^5 cells per well. […]

Caspase 3 = experiment: Western Blot for Caspase 3 in Cama-1 cells; conditions: Poly IC treatment
Protocol: Cama-1 cells were lysed in 1% Nonidet-P40-containing buffer. 20 μg total protein was loaded per lane on SDS-Polyacrylamide gels (Invitrogen). Western Blots (WB) were performed with standard techniques using the antibodies described above. Anti IRAK-4 monoclonal antibodies were generated in the laboratory according to the protocol described in Fossiez et al., “T cell interleukin-17 induces stromal cells to produce proinflammatory and hematopoietic cytokines”, J. Exp. Med., vol. 183(6), pp. 2593-2603 (1996).
We next addressed the role of caspases in apoptosis. Cama-1 cells were pre-incubated with 25 μM of the general caspase inhibitor z-VAD-fmk or DMSO for 1 hour before culture for 24 hours with or without 5 μg/ml Poly IC or 25 ng/ml TNF-α (used as a positive control). Apoptosis was measured by annexin V staining and expressed as a percentage of apoptotic cell in the culture.
In another experiment, lysates from cells obtained above were analyzed by Western Blot for cleavage of PARP, Caspase 3 and Caspase 8.

Substance: polyinosinic-polycytidylic acid [Poly IC]
- cell recovery, percent of control, on average [1]: 67.5%
- apoptotic (annexin positive) cells after 30 hours (Cama-1 cells; Cama-1, 5 μg/ml or 50 ng/ml Poly IC, untreated 15%): 80%
- percentage of apoptotic cells (Cama-1 cells; Cama-1, 25 μM z-VAD-fmk pre-incubation 1 h, 24 h, 5 μg/ml Poly IC or 25 ng/ml TNF-α): 30%
- cells stained by Annexin V (Cama-1 cells; Cama-1, 24 h, 5 μg/ml Poly IC): over 70%
- percentage of apoptotic cells (Cama-1 cells; Cama-1, DMSO pre-incubation 1 h, 24 h, 5 μg/ml Poly IC or 25 ng/ml TNF-α): 70%
- percentage of apoptotic cells (Cama-1 cells; Cama-1, absence of antibody (Example 11), 24 h, 5 μg/ml Poly IC or 1000 U/ml each IFN-α/IFN-β): 70%
- percentage of apoptotic cells (Cama-1 cells; Cama-1, absence of antibody (Example 12), 5 μg/ml Poly IC or 25 ng/ml TNF-α): 70%
- beginning of apoptosis after Poly IC addition (Cama-1 cells; Cama-1, kinetics over 30 hours): 9 h
- percentage of apoptotic cells (Cama-1 cells; Cama-1, pre-incubated 1 h with 20 μg/ml anti-IFN R1 mAb, 24 h, 5 μg/ml Poly IC or 1000 U/ml IFN-α/IFN-β): 30%
- percentage of apoptotic cells (Cama-1 cells; Cama-1, pre-incubated 1 h with 20 μg/ml isotype control mouse IgG1, 24 h, 5 μg/ml Poly IC or 1000 U/ml IFN-α/IFN-β): 70%
- percentage of apoptotic cells (Cama-1 cells; Cama-1, pre-incubated with 10 μg/ml CHX, 5 μg/ml Poly IC or 25 ng/ml TNF-α, untreated 15%): 40%
- percentage of apoptotic cells (Cama-1 cells; Cama-1, pre-incubated with 20 μg/ml neutralizing anti TNF-α mAb, 5 μg/ml Poly IC or 25 ng/ml TNF-α): 65%
- percentage of apoptotic cells (Cama-1 cells; Cama-1 control cells (MOCK and scr), 24 h with 5 μg/ml Poly IC, untreated 10%): about 75%
- percentage of apoptotic cells (Cama-1 cells; Cama-1 control cells (scr), Example 10, 24 h with 5 μg/ml Poly IC, untreated 10%): about 75%
- percentage of apoptotic cells (Cama-1 cells; Cama-1 scr group, 24 h, Poly IC 50 ng/ml): 20%
- percentage of apoptotic cells (Cama-1 cells; Cama-1 scr group, 24 h, Poly IC 5 μg/ml): 70%
- percentage of apoptotic cells (Cama-1 cells; Cama-1 siRNA p65 group, 24 h, Poly IC 50 ng/ml): 10%
- percentage of apoptotic cells (Cama-1 cells; Cama-1 siRNA p65 group, 24 h, Poly IC 5 μg/ml): 20%
- caspase 3 activation (Caspase 3): activated
